Assay results as given in PubChem BioAssay (NCI).
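Grown in 96-well plates, cells were treated for 48 hours with each compound at five concentrations. Insufficient inhibition: endpoint recorded as highest concentration tested. GI50 is the concentration that inhibits growth by half. TGI: total growth inhibition.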

Experiments:
Assay in all cases: inhibition of tumour cell growth, NCI panel, 48 h
SK-MEL-28 melanoma = test system: SK-MEL-28 melanoma
NCI-H23 lung = test system: NCI-H23 lung
MDA-MB-435 = test system: MDA-MB-435
SK-OV-3 ovarian = test system: SK-OV-3 ovarian
M14 melanoma = test system: M14 melanoma
UACC-62 melanoma = test system: UACC-62 melanoma
HCC-2998 colon = test system: HCC-2998 colon
HCT-15 colon = test system: HCT-15 colon
EKVX NSCLC = test system: EKVX NSCLC
HL-60(TB) leukemia = test system: HL-60(TB) leukemia
SNB-75 CNS = test system: SNB-75 CNS
CAKI-1 renal = test system: CAKI-1 renal
COLO 205 colon = test system: COLO 205 colon
HT29 colon = test system: HT29 colon
MDA-MB-231 breast = test system: MDA-MB-231 breast
NCI/ADR-RES ovarian = test system: NCI/ADR-RES ovarian
RXF 393 renal = test system: RXF 393 renal
ACHN renal = test system: ACHN renal
DU-145 prostate = test system: DU-145 prostate
HS 578T breast = test system: HS 578T breast
RPMI-8226 leukemia = test system: RPMI-8226 leukemia
SK-MEL-2 melanoma = test system: SK-MEL-2 melanoma
BT-549 breast = test system: BT-549 breast
MOLT-4 leukemia = test system: MOLT-4 leukemia
OVCAR-4 ovarian = test system: OVCAR-4 ovarian
MCF7 breast = test system: MCF7 breast
NCI-H460 lung = test system: NCI-H460 lung
U251 CNS = test system: U251 CNS
NCI-H522 lung = test system: NCI-H522 lung
A549 NSCLC = test system: A549 NSCLC
UO-31 renal = test system: UO-31 renal
KM12 colon = test system: KM12 colon
HOP-62 NSCLC = test system: HOP-62 NSCLC
MDA-MB-468 breast = test system: MDA-MB-468 breast
LOX IMVI melanoma = test system: LOX IMVI melanoma
PC-3 prostate = test system: PC-3 prostate
HOP-92 NSCLC = test system: HOP-92 NSCLC
OVCAR-8 ovarian = test system: OVCAR-8 ovarian
SF-539 CNS = test system: SF-539 CNS
HCT-116 colon = test system: HCT-116 colon
CCRF-CEM leukemia = test system: CCRF-CEM leukemia
SNB-19 CNS = test system: SNB-19 CNS
786-0 renal = test system: 786-0 renal
SW-620 colon = test system: SW-620 colon
SR leukemia = test system: SR leukemia
IGROV1 ovarian = test system: IGROV1 ovarian
TK-10 renal = test system: TK-10 renal
SF-295 CNS = test system: SF-295 CNS
SN12C renal = test system: SN12C renal
MALME-3M melanoma = test system: MALME-3M melanoma
K-562 leukemia = test system: K-562 leukemia
OVCAR-5 ovarian = test system: OVCAR-5 ovarian
T-47D breast = test system: T-47D breast
NCI-H226 lung = test system: NCI-H226 lung
UACC-257 melanoma = test system: UACC-257 melanoma
OVCAR-3 ovarian = test system: OVCAR-3 ovarian
SF-268 CNS = test system: SF-268 CNS
SK-MEL-5 melanoma = test system: SK-MEL-5 melanoma
A498 renal = test system: A498 renal

Molecule `CC(C)(C)c1cc(/C=C2\S/C(=N/c3ncn[nH]3)NC2=O)cc(C(C)(C)C)c1O` has a GI50 (SK-MEL-28 melanoma) of 2.93 µM, a TGI (SK-MEL-28 melanoma) of 14.4 µM and a GI50 (NCI-H23 lung) of 2.45 µM. It also gave a TGI (NCI-H23 lung) of 17.3 µM, a GI50 (MDA-MB-435) of 2.77 µM and a TGI (MDA-MB-435) of 14.9 µM. For the same molecule, the GI50 (SK-OV-3 ovarian) was 4.83 µM, the TGI (SK-OV-3 ovarian) was 20.5 µM and the GI50 (M14 melanoma) was 1.98 µM. For the same molecule, the TGI (M14 melanoma) was 16.3 µM, the GI50 (UACC-62 melanoma) was 2.28 µM and the TGI (UACC-62 melanoma) was 11.8 µM. It also gave a GI50 (HCC-2998 colon) of 3.23 µM, a TGI (HCC-2998 colon) of 16.9 µM and a GI50 (HCT-15 colon) of 0.455 µM. It also gave a TGI (HCT-15 colon) of 12.8 µM, a GI50 (EKVX NSCLC) of 2.15 µM and a TGI (EKVX NSCLC) of 12.1 µM. The GI50 (HL-60(TB) leukemia) was 2.73 µM, the TGI (HL-60(TB) leukemia) was 18 µM and the GI50 (SNB-75 CNS) was 2.34 µM. The TGI (SNB-75 CNS) was 13.6 µM, the GI50 (CAKI-1 renal) was 1.37 µM and the TGI (CAKI-1 renal) was 16.7 µM. It also gave a GI50 (COLO 205 colon) of 1.99 µM, a TGI (COLO 205 colon) of 12.8 µM and a GI50 (HT29 colon) of 3.03 µM. The TGI (HT29 colon) was 19.4 µM, the GI50 (MDA-MB-231 breast) was 2.91 µM and the TGI (MDA-MB-231 breast) was 14.8 µM. For the same molecule, the GI50 (NCI/ADR-RES ovarian) was 0.472 µM, the TGI (NCI/ADR-RES ovarian) was 14.4 µM and the GI50 (RXF 393 renal) was 2.03 µM. For the same molecule, the TGI (RXF 393 renal) was 8.35 µM, the GI50 (ACHN renal) was 0.691 µM and the TGI (ACHN renal) was 12.6 µM. For the same molecule, the GI50 (DU-145 prostate) was 2.53 µM, the TGI (DU-145 prostate) was 21.5 µM and the GI50 (HS 578T breast) was 2.37 µM. It also gave a TGI (HS 578T breast) of 8.47 µM, a GI50 (RPMI-8226 leukemia) of 2.6 µM and a TGI (RPMI-8226 leukemia) of 33.8 µM. The GI50 (SK-MEL-2 melanoma) was 2.63 µM, the TGI (SK-MEL-2 melanoma) was 15.9 µM and the GI50 (BT-549 breast) was 2.31 µM. For the same molecule, the TGI (BT-549 breast) was 11.8 µM, the GI50 (MOLT-4 leukemia) was 1.16 µM and the TGI (MOLT-4 leukemia) was 13.7 µM. For the same molecule, the GI50 (OVCAR-4 ovarian) was 2.31 µM, the TGI (OVCAR-4 ovarian) was 16.3 µM and the GI50 (MCF7 breast) was 1.83 µM. The TGI (MCF7 breast) was 13 µM, the GI50 (NCI-H460 lung) was 0.402 µM and the TGI (NCI-H460 lung) was 10.1 µM. For the same molecule, the GI50 (U251 CNS) was 0.801 µM, the TGI (U251 CNS) was 7.9 µM and the GI50 (NCI-H522 lung) was 3.78 µM. For the same molecule, the TGI (NCI-H522 lung) was 17.9 µM, the GI50 (A549 NSCLC) was 1.12 µM and the TGI (A549 NSCLC) was 13.8 µM. For the same molecule, the GI50 (UO-31 renal) was 0.882 µM, the TGI (UO-31 renal) was 12.3 µM and the GI50 (KM12 colon) was 3.79 µM. The TGI (KM12 colon) was 17 µM, the GI50 (HOP-62 NSCLC) was 0.999 µM and the TGI (HOP-62 NSCLC) was 18.7 µM. It also gave a GI50 (MDA-MB-468 breast) of 2.75 µM, a TGI (MDA-MB-468 breast) of 15.5 µM and a GI50 (LOX IMVI melanoma) of 0.71 µM. It also gave a TGI (LOX IMVI melanoma) of 12.7 µM, a GI50 (PC-3 prostate) of 0.762 µM and a TGI (PC-3 prostate) of 22.1 µM. For the same molecule, the GI50 (HOP-92 NSCLC) was 1.72 µM, the TGI (HOP-92 NSCLC) was 13.4 µM and the GI50 (OVCAR-8 ovarian) was 1.76 µM. For the same molecule, the TGI (OVCAR-8 ovarian) was 14.3 µM, the GI50 (SF-539 CNS) was 2.89 µM and the TGI (SF-539 CNS) was 12.6 µM. For the same molecule, the GI50 (HCT-116 colon) was 0.978 µM, the TGI (HCT-116 colon) was 11.1 µM and the GI50 (CCRF-CEM leukemia) was 0.706 µM. It also gave a TGI (CCRF-CEM leukemia) of 6.5 µM, a GI50 (SNB-19 CNS) of 1.5 µM and a TGI (SNB-19 CNS) of 12.9 µM. For the same molecule, the GI50 (786-0 renal) was 2.95 µM, the TGI (786-0 renal) was 13.3 µM and the GI50 (SW-620 colon) was 2.13 µM. The TGI (SW-620 colon) was 13.7 µM, the GI50 (SR leukemia) was 0.935 µM and the TGI (SR leukemia) was 29.8 µM. For the same molecule, the GI50 (IGROV1 ovarian) was 2.04 µM, the TGI (IGROV1 ovarian) was 14.7 µM and the GI50 (TK-10 renal) was 4.82 µM. It also gave a TGI (TK-10 renal) of 20.2 µM, a GI50 (SF-295 CNS) of 0.593 µM and a TGI (SF-295 CNS) of 12.7 µM. It also gave a GI50 (SN12C renal) of 2.08 µM, a TGI (SN12C renal) of 13.3 µM and a GI50 (MALME-3M melanoma) of 3.74 µM. It also gave a TGI (MALME-3M melanoma) of 18.9 µM, a GI50 (K-562 leukemia) of 1.44 µM and a TGI (K-562 leukemia) of 54.3 µM. The GI50 (OVCAR-5 ovarian) was 4.52 µM, the TGI (OVCAR-5 ovarian) was 17.7 µM and the GI50 (T-47D breast) was 2.29 µM. It also gave a TGI (T-47D breast) of 44.4 µM, a GI50 (NCI-H226 lung) of 1.8 µM and a TGI (NCI-H226 lung) of 14.3 µM. For the same molecule, the GI50 (UACC-257 melanoma) was 3.85 µM, the TGI (UACC-257 melanoma) was 16.7 µM and the GI50 (OVCAR-3 ovarian) was 2.4 µM. It also gave a TGI (OVCAR-3 ovarian) of 15.2 µM, a GI50 (SF-268 CNS) of 2.61 µM and a TGI (SF-268 CNS) of 16.6 µM. The GI50 (SK-MEL-5 melanoma) was 1.36 µM, the TGI (SK-MEL-5 melanoma) was 9.78 µM and the GI50 (A498 renal) was 1.77 µM. It also gave a TGI (A498 renal) of 10.5 µM.
